Data set [1] relates to M. tuberculosis (mc^26230). In kind it is cell-based, Mycobacterium tuberculosis.
The test system of the next data set is macrophages. Briefly: Toxicity of GTSM and ATSM towards macrophages (50% reduction in viability). It counts as cell-based. An excerpt:
Fluorescence intensity was a measure of cell viability and was shown as percent of viability of untreated cells that were not exposed to GTSM-Cu or ATSM-Cu. The inhibitory concentration (IC50) was estimated based on the shape of the curve, and indicates the concentration at which a 50% decrease in viability is observed, and the therapeutic index was estimated based on the lethal dose (LD50) of these compounds for macrophages, which indicates a 50% reduction in viability. The LD50 of GTSM towards macrophages, the main residential cell type for M. tuberculosis, is 10 μM. […] The therapeutic index calculates as TI=LD50/IC50

The conditions of data set [2]: concentrations higher than 10 μM could not be tested.

Molecules are shown by their SMILES. Like-named read-outs stand apart in the source and are kept apart here.

For `CNC(=S)NN=CC=NNC(=S)NC` [GTSM], the “therapeutic index (TD50/IC50; TI=LD50/IC50)” value in data set [1] ([…], copper complex, estimated) is 25. Moreover, the “Mycobacterium tuberculosis cell viability” value in data set [1] (complexed with copper, 10 μM copper, fluorescence 12 hours after AlamarBlue addition) is on record as “decreased significantly”. Besides, the LD50 towards macrophages in the data set with macrophages (50% reduction in viability of macrophages) amounted to 10 µM.
For the molecule `CNC(=S)N/N=C(C)/C(C)=N/NC(=S)NC` [ATSM], the “Mycobacterium tuberculosis cell viability” value in data set [1] is reported as “decreased significantly”. Besides, the solubility result in data set [2] is recorded as “limited solubility”. For the same molecule, in the data set with macrophages (up to 10 μM), the toxicity towards macrophages result is on record as “did not show any toxicity”.
With `CNC1=NN=C(C)C(C)=NN=C(NC)[S][Cu][S]1` [ATSM-Cu complex], the “activity against Mycobacterium tuberculosis” value in data set [1] (copper complex, FIG. 5 / FIG. 6) is given as “active”.

Values taken from patent publication US20130324598A1, “TREATING MYCOBACTERIAL INFECTION WITH CU+/++ BOOSTING THERAPEUTICS” (priority 2011, published 2013).
